ChEMBL document CHEMBL4184096 (Bioorg Med Chem Lett, 2018)

Legend:
[1] = molecular target: T1, KvLQT1/minK (Kv7.1/minK) potassium channel (Homo sapiens, UniProt P51787+Q8N4C8); test: Inhibition of human KvLQT1/minK channel expressed in CHO cells at 1 uM at holding potential of -80 mV by whole cell patch clamp assay relative to control; type: cell-based; conditions: CHO cells expressing human KvLQT1/minK channel
[2] = molecular target: T1, KvLQT1/minK (Kv7.1/minK) potassium channel; test: Inhibition of human KvLQT1/minK channel expressed in CHO cells at 10 uM at holding potential of -80 mV by whole cell patch clamp assay relative to control; type: cell-based; conditions: CHO cells expressing human KvLQT1/minK channel
[3] = molecular target: Sodium channel protein type 5 subunit alpha (Homo sapiens, UniProt Q14524); test: Inhibition of human Nav1.5 channel expressed in HEK293 cells at holding potential of -70 mV by whole cell patch clamp assay; type: cell-based
[4] = molecular target: T2, Voltage-gated inwardly rectifying potassium channel KCNH2 (Homo sapiens, UniProt Q12809); test: Inhibition of human ERG expressed in HEK293 cells at holding potential of -80 mV by whole cell patch clamp assay; type: cell-based
T2 sequence (Q12809 whole entry): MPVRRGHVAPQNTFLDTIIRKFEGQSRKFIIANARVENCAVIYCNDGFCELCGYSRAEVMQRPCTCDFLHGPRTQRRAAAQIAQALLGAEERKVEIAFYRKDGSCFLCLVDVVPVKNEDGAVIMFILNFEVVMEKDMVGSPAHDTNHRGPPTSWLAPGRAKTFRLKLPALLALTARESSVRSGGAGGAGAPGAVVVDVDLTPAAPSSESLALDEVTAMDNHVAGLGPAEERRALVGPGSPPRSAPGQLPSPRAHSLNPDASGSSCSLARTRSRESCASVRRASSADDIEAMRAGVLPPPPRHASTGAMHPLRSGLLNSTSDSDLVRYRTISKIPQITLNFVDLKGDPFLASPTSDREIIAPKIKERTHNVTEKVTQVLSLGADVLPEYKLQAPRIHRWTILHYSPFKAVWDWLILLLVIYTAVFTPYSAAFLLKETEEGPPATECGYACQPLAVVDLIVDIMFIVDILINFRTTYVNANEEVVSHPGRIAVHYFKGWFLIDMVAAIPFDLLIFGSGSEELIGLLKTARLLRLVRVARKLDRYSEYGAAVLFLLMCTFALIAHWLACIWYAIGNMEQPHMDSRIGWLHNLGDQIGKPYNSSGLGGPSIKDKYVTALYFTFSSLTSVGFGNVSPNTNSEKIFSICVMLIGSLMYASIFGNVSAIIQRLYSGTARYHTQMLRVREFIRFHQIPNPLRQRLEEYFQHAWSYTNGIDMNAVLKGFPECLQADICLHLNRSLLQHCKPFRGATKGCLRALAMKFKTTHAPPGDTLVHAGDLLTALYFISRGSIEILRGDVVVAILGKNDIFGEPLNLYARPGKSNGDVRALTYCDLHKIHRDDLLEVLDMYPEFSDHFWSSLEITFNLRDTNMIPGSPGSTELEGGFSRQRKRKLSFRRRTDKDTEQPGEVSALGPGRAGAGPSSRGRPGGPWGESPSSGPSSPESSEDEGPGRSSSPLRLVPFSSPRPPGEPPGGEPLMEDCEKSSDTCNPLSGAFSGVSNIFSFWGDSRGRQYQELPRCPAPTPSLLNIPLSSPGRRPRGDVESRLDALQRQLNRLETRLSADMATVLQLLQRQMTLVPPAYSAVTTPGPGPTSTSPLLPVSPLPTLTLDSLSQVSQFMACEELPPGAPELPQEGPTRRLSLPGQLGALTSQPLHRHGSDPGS

[5] = Plasma concentration in human cardiac arrhythmia model; type: ADME, cell-free
hERG (KCNH2) = hERG (KCNH2) (Homo sapiens, UniProt Q12809); test: Inhibition of human ERG expressed in HEK293 cells at 30 nM at holding potential of -80 mV by whole cell patch clamp assay relative to control; type: cell-based; conditions: HEK293 cells expressing human ERG
Chain of hERG (KCNH2) (Q12809 whole entry): as above

[6] = Protein binding to human plasma at 30 to 1000 ng/ml after 2 to 6 hrs by LC-MS/MS based rapid equilibrium dialysis method; type: ADME, cell-free; conditions: read-out: PPB (converted)
[7] = Fraction unbound in human plasma at 30 to 1000 ng/ml after 2 to 6 hrs by LC-MS/MS based rapid equilibrium dialysis method; type: ADME, cell-free
[8] = molecular target: T2, Voltage-gated inwardly rectifying potassium channel KCNH2; test: Inhibition of human ERG expressed in HEK293 cells by patch clamp assay; type: cell-based

T1 sequence (P51787 whole entry): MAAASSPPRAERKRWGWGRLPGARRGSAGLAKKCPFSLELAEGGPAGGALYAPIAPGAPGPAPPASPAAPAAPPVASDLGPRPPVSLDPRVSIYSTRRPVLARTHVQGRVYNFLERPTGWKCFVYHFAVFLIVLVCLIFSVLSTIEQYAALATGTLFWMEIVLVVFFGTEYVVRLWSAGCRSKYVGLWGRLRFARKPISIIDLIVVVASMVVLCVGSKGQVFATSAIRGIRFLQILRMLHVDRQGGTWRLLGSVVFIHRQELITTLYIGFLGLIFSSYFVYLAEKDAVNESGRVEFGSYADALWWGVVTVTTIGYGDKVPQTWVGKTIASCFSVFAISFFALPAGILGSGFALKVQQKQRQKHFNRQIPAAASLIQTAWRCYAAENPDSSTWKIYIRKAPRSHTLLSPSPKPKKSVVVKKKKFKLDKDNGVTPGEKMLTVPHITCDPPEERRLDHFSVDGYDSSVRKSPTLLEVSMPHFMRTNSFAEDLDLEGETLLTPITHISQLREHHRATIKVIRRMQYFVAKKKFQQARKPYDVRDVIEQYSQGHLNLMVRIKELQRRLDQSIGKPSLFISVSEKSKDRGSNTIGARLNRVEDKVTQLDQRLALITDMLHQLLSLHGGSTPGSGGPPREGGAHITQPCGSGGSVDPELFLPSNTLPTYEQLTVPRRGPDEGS
T1 sequence (Q8N4C8 whole entry): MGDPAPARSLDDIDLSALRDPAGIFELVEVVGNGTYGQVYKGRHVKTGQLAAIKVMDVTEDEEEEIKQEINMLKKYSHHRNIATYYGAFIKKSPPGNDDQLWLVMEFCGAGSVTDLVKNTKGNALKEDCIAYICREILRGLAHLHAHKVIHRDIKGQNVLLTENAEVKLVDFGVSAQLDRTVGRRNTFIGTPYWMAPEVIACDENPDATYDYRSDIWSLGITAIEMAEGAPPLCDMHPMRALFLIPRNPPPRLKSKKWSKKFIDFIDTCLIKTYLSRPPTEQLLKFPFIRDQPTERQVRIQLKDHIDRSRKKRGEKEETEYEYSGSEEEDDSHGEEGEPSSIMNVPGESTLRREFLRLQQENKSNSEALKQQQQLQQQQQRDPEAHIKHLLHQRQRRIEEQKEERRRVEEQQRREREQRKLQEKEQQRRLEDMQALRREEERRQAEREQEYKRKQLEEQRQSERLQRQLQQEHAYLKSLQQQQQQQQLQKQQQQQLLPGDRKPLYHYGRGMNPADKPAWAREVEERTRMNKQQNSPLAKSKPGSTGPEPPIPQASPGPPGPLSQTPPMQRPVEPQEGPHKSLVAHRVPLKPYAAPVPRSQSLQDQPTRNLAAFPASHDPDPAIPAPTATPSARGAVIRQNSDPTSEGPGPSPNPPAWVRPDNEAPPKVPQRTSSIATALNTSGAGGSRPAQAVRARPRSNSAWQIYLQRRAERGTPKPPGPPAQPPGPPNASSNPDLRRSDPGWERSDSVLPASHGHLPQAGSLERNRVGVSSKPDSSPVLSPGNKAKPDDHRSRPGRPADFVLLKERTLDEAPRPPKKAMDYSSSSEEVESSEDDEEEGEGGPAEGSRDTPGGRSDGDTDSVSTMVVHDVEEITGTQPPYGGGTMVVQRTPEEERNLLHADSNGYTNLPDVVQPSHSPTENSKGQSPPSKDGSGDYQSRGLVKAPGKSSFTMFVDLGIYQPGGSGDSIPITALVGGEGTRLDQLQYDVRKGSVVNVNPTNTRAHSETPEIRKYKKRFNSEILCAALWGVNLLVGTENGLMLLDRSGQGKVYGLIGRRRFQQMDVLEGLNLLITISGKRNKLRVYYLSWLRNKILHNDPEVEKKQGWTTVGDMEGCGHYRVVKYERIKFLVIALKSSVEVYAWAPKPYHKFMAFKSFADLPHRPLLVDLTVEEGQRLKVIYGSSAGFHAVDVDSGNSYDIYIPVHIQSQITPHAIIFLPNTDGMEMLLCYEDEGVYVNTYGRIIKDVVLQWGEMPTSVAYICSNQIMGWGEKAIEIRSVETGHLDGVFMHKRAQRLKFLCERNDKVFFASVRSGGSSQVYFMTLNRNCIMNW

CNC(=O)C(CCN1CCC(O)(c2ccc(Cl)cc2)CC1)(c1ccccc1)c1ccccc1
inhibition at 1 µM [1]: 4% | inhibition at 10 µM [2]: 23% | IC50 [3]: 483 nM | IC50 [4]: 245 nM | Cp [5]: 560 to 630 ng/mL | inhibition at 0.03 µM (hERG (KCNH2)): 5.9% | fraction unbound [6]: 0.043 | Cp(f) [7]: 48 to 54 nM

CN(C)C(=O)C(CCN1CCC(O)(c2ccc(Cl)cc2)CC1)(c1ccccc1)c1ccccc1 [LOPERAMIDE]
inhibition at 1 µM [1]: 17% | inhibition at 10 µM [2]: 65% | IC50 [3]: 239 nM | Cp [5]: 76 to 120 ng/mL | fraction unbound [6]: 0.03 to 0.05 | Cp(f) [7]: 6.3 to 10 nM | inhibition (INH) [8]: 20%
